Measurements from PubChem BioAssay (NCI).
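Briefly, cells in 96-well plates were exposed to five compound concentrations for 48 h, and endpoints were estimated by linear interpolation. GI50: concentration for 50% inhibition of growth. TGI marks complete inhibition of growth.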

What was measured:
Experiment in all cases: inhibition of tumour cell growth, NCI panel, 48 h
NCI-H460 lung = tested on: NCI-H460 lung
UO-31 renal = tested on: UO-31 renal
CCRF-CEM leukemia = tested on: CCRF-CEM leukemia
OVCAR-4 ovarian = tested on: OVCAR-4 ovarian
SK-MEL-2 melanoma = tested on: SK-MEL-2 melanoma
NCI-H522 lung = tested on: NCI-H522 lung
LOX IMVI melanoma = tested on: LOX IMVI melanoma
COLO 205 colon = tested on: COLO 205 colon
OVCAR-8 ovarian = tested on: OVCAR-8 ovarian
NCI/ADR-RES ovarian = tested on: NCI/ADR-RES ovarian

Row | SMILES | TGI (NCI-H460 lung) [µM] | TGI (UO-31 renal) [µM] | TGI (CCRF-CEM leukemia) [µM] | TGI (OVCAR-4 ovarian) [µM] | TGI (SK-MEL-2 melanoma) [µM] | TGI (NCI-H522 lung) [µM] | TGI (LOX IMVI melanoma) [µM] | TGI (COLO 205 colon) [µM] | TGI (OVCAR-8 ovarian) [µM] | GI50 (NCI-H460 lung) [µM] | GI50 (UO-31 renal) [µM] | GI50 (CCRF-CEM leukemia) [µM] | GI50 (NCI/ADR-RES ovarian) [µM] | TGI (NCI/ADR-RES ovarian) [µM] | GI50 (OVCAR-4 ovarian) [µM] | GI50 (SK-MEL-2 melanoma) [µM] | GI50 (LOX IMVI melanoma) [µM] | GI50 (COLO 205 colon) [µM] | GI50 (OVCAR-8 ovarian) [µM] | GI50 (NCI-H522 lung) [µM]
1 | CCCCc1c2cnccc2c(CCCC)c2c1[nH]c1ccccc12 | > 100 | 29.8 | 99 | 29.8 | 30.5 | 58.2 | 41.4 | 27.4 | 31.1 |  |  |  |  |  |  |  |  |  |  | 
2 | O=C(Nc1ccccc1-c1nn(CN2CCNCC2)c(=S)n(CN2CCNCC2)c1=O)C(F)(F)F | 53.3 | 32.6 | 45.2 | 35.2 | 33.5 |  | 36.5 | 31 | 53.5 |  |  |  |  |  |  |  |  |  |  | 
3 | C=CCN1/C(=C2\SC(=S)N(c3ccc(C)cc3)C2=O)Sc2c1ncn(C)c2=O | > 100 | > 100 | > 100 | > 100 | > 100 | > 100 | > 100 | > 100 | > 100 |  |  |  |  |  |  |  |  |  |  | 
4 | N/N=C(\c1nc2ccc(Cl)cc2[nH]c1=O)C(O)c1ccc(Cl)c(Cl)c1 (centres undefined) | > 100 | > 100 | > 100 | 87.8 | > 100 | > 100 | > 100 | > 100 | > 100 |  |  |  |  |  |  |  |  |  |  | 
5 | COc1ccc(C(=O)CC2=Nc3nnc(CCCCCCCc4nnc5n4C(=O)C(CC(=O)c4ccc(OC)cc4)=N5)n3C2=O)cc1 | > 100 | > 100 | > 100 |  |  | > 100 | > 100 | > 100 | > 100 |  |  |  |  |  |  |  |  |  |  | 
6 | Cc1cc(C)c(C(=O)O)c(SSc2cc(C)cc(C)c2C(=O)O)c1 | > 100 | > 100 | > 100 | > 100 | > 100 | > 100 | > 100 | > 100 | > 100 |  |  |  |  |  |  |  |  |  |  | 
7 | CCCN(CCC)C(=O)c1nc(N)nc(-c2ccc(OC)cc2)c1-c1ccc(OC)cc1 | > 100 | > 100 | > 100 | > 100 | > 100 | > 100 |  | > 100 | > 100 |  |  |  |  |  |  |  |  |  |  | 
8 | COc1cc(C(=O)O[C@H](C(=O)NCCN(C)CCNC(=O)[C@@H](OC(=O)c2cc(OC)cc3c(C)cccc23)[C@]2(C)CO2)[C@]2(C)CO2)c2cccc(C)c2c1 | 1.61 | > 100 |  | 0.679 | > 100 |  |  | 1.55 | < 0.0324 | < 0.01 | 0.417 | < 0.01 | < 0.0506 | 1.3 | 0.056 | 0.253 | < 0.01 | 0.0391 | < 0.01 | 
9 | CC1=NOC(=O)/C1=C/c1ccc([N+](=O)[O-])cc1 | > 100 | > 100 | > 100 | > 100 | > 100 | > 100 | > 100 | > 100 | > 100 |  |  |  |  |  |  |  |  |  |  | 
10 | O=C1CNC(=O)c2[nH]cnc2N1 | > 100 | > 100 | > 100 | > 100 |  |  | > 100 | > 100 | > 100 |  |  |  |  |  |  |  |  |  |  | 
11 | COC(=O)[C@@H](C)[C@H]1CC[C@@](C)(CCC2=C(C)CC3C=C(C)CCC3C2(C)C)OO1 (some centres undefined) | 3.57 | 2.76 | 0.39 | 3 | 3.32 | 0.331 |  | 4.38 | 4.09 |  |  |  |  |  |  |  |  |  |  | 
12 | COC1CCC(OC)C(C2(C3CC(OC)CCC3OC)OC(=O)c3ccccc32)C1 (centres undefined) | > 100 | > 100 |  | > 100 | > 100 | 52.1 |  | > 100 | > 100 |  |  |  |  |  |  |  |  |  |  | 
13 | O=c1oc2cc(OC/C(=N/O)c3ccc(F)cc3)ccc2c2ccccc12 | 35.2 | 35.2 | > 100 |  | 40 | 37 |  | 61.4 | 43.6 | 16.9 | 18.7 | 23 | 18 | 36.2 |  | 21.3 |  | 25.3 | 22.5 | 17.5
14 | CC(C)C(=O)c1c(C(F)(F)F)n([O-])c2cc(F)c(F)cc2[n+]1=O | 2.81 | 1.75 | > 100 | 2.89 | 27.8 | 6.22 |  | 1.66 | 0.85 | 0.811 | 0.568 | 0.0218 | 0.2 | 0.545 | 0.842 | 0.234 |  | 0.427 | 0.262 | 1.96
15 | COc1ccc2oc(-c3ccc(OC)c(OC)c3OC)cc(=O)c2c1 |  |  | > 100 | > 100 | > 100 | 68.3 | > 100 | > 100 |  |  |  |  |  |  |  |  |  |  |  | 
16 | O=C(CI)Nc1ccc(O)c2ccccc12 | 4.71 | 2.01 |  | 1.23 | 9.22 | 0.297 | 2.68 | 0.956 | 7.15 | 2.13 | 0.647 |  | 2.97 | 14.8 | 0.575 | 2.93 | 1.28 | 0.379 | 1.93 | 0.142
17 | c1ccc(SC23C4C5C6C4C2C6C53)nc1 (centres undefined) | > 100 | > 100 | > 100 | > 100 | > 100 | > 100 | > 100 | > 100 | > 100 |  |  |  |  |  |  |  |  |  |  | 
18 | Cc1ccc(NC(=O)/C(Cc2cc(=O)oc3cc(O)ccc23)=N\NC(C)(C)C)cc1C | > 100 | > 100 | > 100 | > 100 | > 100 |  | > 100 | > 100 | > 100 |  |  |  |  | > 100 |  |  |  |  |  | 
19 | COC(=O)C1CC(OC(C)=O)C=C2C(=O)CCC21 (centres undefined) | 35.2 | 80.3 | 34.4 | 45.1 | 79.9 | 3.75 |  | 34.4 | 37.6 |  |  |  |  |  |  |  |  |  |  | 
20 | COc1cc(C(C)c2cc3c(cc2OCCNC(=O)COc2cc4c(cc2C(C)c2cc(OC)c(OC)c(OC)c2)OCO4)OCO3)cc(OC)c1OC (centres undefined) | 49 | > 100 | > 100 | > 100 | > 100 | 92.6 | > 100 | > 100 | > 100 |  |  |  |  |  |  |  |  |  |  | 
